We go through eight compounds from PubChem BioAssay (NCI).

Several values for one entry are separate records, joined by “and”; a condition that tells them apart may be missing. Equal values may be shown once.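 A five-concentration, 48-hour dose response in 96-well plates underlies each endpoint, interpolated linearly between surrounding concentrations. The concentration for 50% growth inhibition is given as GI50. TGI: concentration producing complete growth inhibition.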

Among the test systems are SK-OV-3 ovarian; TK-10 renal; 786-0 renal; COLO 205 colon; SF-268 CNS; NCI-H23 lung; HS 578T breast; KM12 colon; NCI-H522 lung; UO-31 renal; DU-145 prostate; UACC-257 melanoma; HOP-62 NSCLC; SF-295 CNS; SK-MEL-28 melanoma; UACC-62 melanoma.
What all share (assay): DTP human tumour cell line panel, 48 h

As to `Nc1nc(Cl)c(C=O)c(NCC2(CO)CCC2)n1`, the TGI in the assay on SK-OV-3 ovarian is 69.5 µM; in the assay with TK-10 renal, > 100 µM; in the assay with 786-0 renal, > 100 µM; with COLO 205 colon, 78.3 µM; with SF-268 CNS, 51.8 µM; in the assay with NCI-H23 lung, > 100 µM. Further, the TGI in the assay with HS 578T breast is 67.9 µM; in the assay with KM12 colon it was > 100 µM; with NCI-H522 lung it was 14.7 µM; in the assay on UO-31 renal it was 58.6 µM; with DU-145 prostate, > 100 µM; in the assay with UACC-257 melanoma, > 100 µM. For the same compound, the TGI in the assay with HOP-62 NSCLC was 65.1 µM; with SF-295 CNS, 67.6 µM; in the assay with SK-MEL-28 melanoma, > 100 µM; with UACC-62 melanoma, 35.1 µM.
`FC(F)(F)C1(c2ccccc2)SCc2nc3ccccc3n21` (stereo not given): the TGI in the assay on SK-OV-3 ovarian, with TK-10 renal, in the assay on 786-0 renal, with COLO 205 colon, in the assay with SF-268 CNS and with NCI-H23 lung was > 100 µM in each case. Further, the TGI with HS 578T breast, with KM12 colon, with NCI-H522 lung, in the assay on UO-31 renal, in the assay with DU-145 prostate and in the assay with UACC-257 melanoma was > 100 µM in each case. Also, the TGI in the assay with HOP-62 NSCLC, in the assay with SF-295 CNS, in the assay with SK-MEL-28 melanoma and with UACC-62 melanoma was > 100 µM each time.
In the case of `NS(=O)(=O)c1nnc(NC(=O)/C=C/C(=O)O)s1`, the TGI in the assay on SK-OV-3 ovarian, in the assay on TK-10 renal, in the assay on 786-0 renal, in the assay on COLO 205 colon, in the assay with SF-268 CNS and with NCI-H23 lung was > 100 µM each time. Further, the TGI with HS 578T breast, in the assay on KM12 colon, in the assay with NCI-H522 lung, in the assay with UO-31 renal, in the assay with DU-145 prostate and in the assay on UACC-257 melanoma was > 100 µM throughout. The TGI in the assay on HOP-62 NSCLC, in the assay with SF-295 CNS, in the assay on SK-MEL-28 melanoma and with UACC-62 melanoma was > 100 µM throughout.
For `O=C1c2cc([N+](=O)[O-])sc2C(=O)c2cc([N+](=O)[O-])sc21`, the total growth inhibition concentration (TGI) in the assay with SK-OV-3 ovarian was found to be 25.2 µM; in the assay on TK-10 renal, 13 µM; in the assay on 786-0 renal, 6.78 µM; in the assay on COLO 205 colon it was 6.1 µM; in the assay with SF-268 CNS, 10 µM; with NCI-H23 lung, 15.5 µM. For the same compound, the TGI was determined as 35 µM with HS 578T breast; 14.8 µM with KM12 colon; 3.02 µM in the assay with NCI-H522 lung; 7.68 µM in the assay with UO-31 renal; 23.9 µM in the assay with DU-145 prostate; 11.8 µM in the assay on UACC-257 melanoma. Also, the TGI in the assay with HOP-62 NSCLC was 15.3 µM; in the assay with SF-295 CNS, 23.9 µM; in the assay with SK-MEL-28 melanoma, 8.3 µM; with UACC-62 melanoma it was 3.8 µM.
`NS(=O)(=O)c1ccc(N2C(=O)C(=O)N(c3ccccc3)C2=S)cc1`: the TGI in the assay with SK-OV-3 ovarian, in the assay with TK-10 renal, with 786-0 renal, in the assay on COLO 205 colon, in the assay with SF-268 CNS and in the assay on NCI-H23 lung was > 100 µM throughout. Further, the TGI in the assay on HS 578T breast, in the assay on KM12 colon, in the assay on NCI-H522 lung, with UO-31 renal, in the assay with DU-145 prostate and in the assay on UACC-257 melanoma was > 100 µM each time. Also, the total growth inhibition concentration (TGI) with HOP-62 NSCLC, in the assay on SF-295 CNS, with SK-MEL-28 melanoma and in the assay on UACC-62 melanoma was > 100 µM in each case.
As to `CC1(C)/C(=N\Nc2ccc([N+](=O)[O-])cc2[N+](=O)[O-])C2CCC1C2` (stereo not given), the TGI in the assay with SK-OV-3 ovarian, in the assay with TK-10 renal, with 786-0 renal, with COLO 205 colon, in the assay on SF-268 CNS and in the assay on NCI-H23 lung was > 100 µM in each case. The TGI in the assay with HS 578T breast was 98.6 µM; in the assay on KM12 colon, > 100 µM; in the assay on NCI-H522 lung, > 100 µM; with UO-31 renal, > 100 µM; in the assay on DU-145 prostate, > 100 µM; in the assay on UACC-257 melanoma, > 100 µM. In addition, the TGI is > 100 µM in the assay with HOP-62 NSCLC, 71.5 µM with SF-295 CNS, > 100 µM in the assay on SK-MEL-28 melanoma and > 100 µM in the assay with UACC-62 melanoma.
Regarding `COC1C(OC(C)=O)CC(=O)OC(C)C/C=C/C=C\C(O)C(C)CC(CC=O)C1OC1OC(C)C(OC2CC(C)(O)C(OC(=O)CC(C)C)C(C)O2)C(N(C)C)C1O` (stereo not given), the TGI in the assay on SK-OV-3 ovarian, in the assay on TK-10 renal, with 786-0 renal, with COLO 205 colon, in the assay on SF-268 CNS and in the assay with NCI-H23 lung was > 100 µM each time. In addition, the TGI in the assay with HS 578T breast, in the assay with KM12 colon, in the assay with NCI-H522 lung, in the assay on UO-31 renal, with DU-145 prostate and in the assay on UACC-257 melanoma was > 100 µM in each case. The TGI with HOP-62 NSCLC, in the assay with SF-295 CNS, in the assay on SK-MEL-28 melanoma and in the assay with UACC-62 melanoma was > 100 µM in each case. In addition, the GI50 with HS 578T breast is > 100 µM and 42 µM; in the assay with KM12 colon it was 37.9 µM and 85.3 µM.
In the case of `COc1ccc(Br)c(C=Nc2cccc3cc(OC)c(OC)cc23)c1`, the total growth inhibition concentration (TGI) was > 100 µM in the assay with SK-OV-3 ovarian; 71.6 µM in the assay on TK-10 renal; > 100 µM in the assay with 786-0 renal; > 100 µM in the assay on COLO 205 colon; > 100 µM in the assay on SF-268 CNS; > 100 µM in the assay on NCI-H23 lung. Besides, the concentration for total growth inhibition (TGI) in the assay on HS 578T breast is 57.1 µM; in the assay on KM12 colon, > 95.7 µM; in the assay with NCI-H522 lung, > 100 µM; in the assay on UO-31 renal, 97.5 µM; with DU-145 prostate, > 100 µM; in the assay with UACC-257 melanoma, > 100 µM. Also, the TGI was > 100 µM with HOP-62 NSCLC, > 100 µM in the assay with SF-295 CNS, > 100 µM with SK-MEL-28 melanoma and > 83 µM in the assay with UACC-62 melanoma.
